The values below come from patent US5608095A, “Alkyl-4-silyl-phenols and esters thereof as antiatherosclerotic agents” (Hoechst Marion Roussel, Inc., priority 1996, dated 1997).

Series [1] has as its system VCAM-1. As to the kind of experiment: Cell surface ELISA for VCAM-1 in human aortic smooth muscle cells (HASMC), interleukin-4 induced. Format: cell-based. To be noted: 50 μm; for VCAM-1 (Avg.) % inh.: average of HSMC-1 to HSMC-3; for HSMC-1 % inh. of VCAM-1: experiment HSMC-1, interleukin-4, about 20 hr; for HSMC-2 % inh. of VCAM-1: experiment HSMC-2, interleukin-4, about 20 hr; for HSMC-3 % inh. of VCAM-1: experiment HSMC-3, interleukin-4, about 20 hr. As for the experimental part:
(§1) Cell Surface ELISA for VCAM-1/ICAM-1
(§2) Proliferating human umbilical vein endothelial cells (HUVEC) or human aortic smooth muscle cells (HASMC) from Clonetics (San Diego, Calif.) were plated onto 96-well plates in 100 μL medium per well at 20,000 cells per cm^2. The cultures were maintained in growth medium (EGM or SMGM2, Clonetics, San Diego, Calif.) for two days prior to addition of cytokines or drugs. Cytokines plus or minus compounds were added for 20 to 24 hours prior to analysis for adhesion molecule levels. Tumor necrosis factor (Genzyme, Cambridge, Mass.) was added to cultures at 500-1000 units/mL. Interleukin-4 (GIBCO-BRL, Gaithersburg, Md.) was added to cultures at 100-200 pg/mL. (Additions were made by transferring 100 [μL of cytokines plus compounds serially diluted on a separate 96-well plate into the plates containing cells. The medium on the cultures was not exchanged prior to addition of effectors). The culture medium was removed, and the monolayers were washed twice with Hanks buffered saline solution (HBSS) at room temperature. The primary antibody (anti-human VCAM-1 from Upstate Biotechnology, Inc., Lake Placid, N.Y. or anti-human ICAM-1 from Immunotech, Inc., Westbrook, Me.) was added to each well (1 μg/mL in HBSS plus 5% newborn calf serum, GIBCO-BRL, Gaithersburg, Md.) and incubated at 37° C. for 1 hr. The wells were washed twice with HBSS, then 100 μL of a 1/1000 dilution of goat anti-mouse IgG conjugated to horse radish peroxidase (BioRad, Hercules, Calif.) in HBSS plus 5% newborn calf serum was added to each well and incubated for 1 hr at 37° C. The wells were washed three times with HBSS, then 100 μL of TMB substrate (BioRad, Hercules, Calif.) was added to each well. The reaction was stopped after blue color developed by addition of 50 μL of 1N H2 SO4. Absorbance is measured at 450 nm with a plate reader. IC50 values were determined from curves of absorbance values obtained from serial dilutions of compounds (dissolved in dimethyl sulfoxide).
(§3) The IC50 value is defined as the drug concentration that inhibits the cytokine-induced adhesion molecule expression by 50%. Maximal values for adhesion molecule expression in cytokine-induced cultures was […] the basal level of adhesion molecule expression (minus cytokines) in the cultures to determine the level of induction. […] Each drug concentration was tested in quadruplicate wells. Single point tests of compounds at 50 μM were assayed as described for IC50 determinations, except that the data represent the level of inhibition without correction for basal expression. (Basal adhesion molecule expression was 10-20% of the total induced expression). Table 1 summarizes the ability of various compounds of this invention to inhibit VCAM-1 using human aortic smooth muscle cells (HASMC). In these experiments, the cells were coincubated with interleukin-4 and the compounds listed about 20 hr before assaying cell surface VCAM-1 levels. Each column represents a separate experiment.
(In general: An ELISA detects its analyte on a solid surface through an enzyme-linked reagent.)

A further series concerns ICAM-1. Put plainly: Cell surface ELISA for ICAM-1 in human umbilical vein endothelial cells (HUVEC), TNF-alpha induced. Format: cell-based. The conditions noted are these: 50 μM, average of two runs, numbers in parentheses represent negative values. As for the experimental part:
as §1, §2, §3
(§4) In these experiments, the cells were coincubated with tumor necrosis factor-alpha along with the indicated compounds about 20 to 24 hr before assaying cell surface adhesion molecule expression.

The test system of series [2] is VCAM-1. Put plainly: Cell surface ELISA for VCAM-1 in human umbilical vein endothelial cells (HUVEC), TNF-alpha induced. The format is cell-based. The conditions noted are these: 50 μM, average of three runs. As for the experimental part:
as §1, §2, §3, §4

Series [3] can be described thus: HPLC quantitation of compound and metabolite concentration in rabbit serum and liver. Format: in vivo, female New Zealand White rabbits. The conditions noted are these: 7 days; for Liver Parent = parent compound concentration: rabbit liver; for Serum Parent = parent compound concentration: rabbit serum. As for the experimental part:
(§5) Five independent experiments were performed in the following manner. […] Female New Zealand White rabbits (Hazelton, ~2.0-2.3 kg) were fed 0.2% cholesterol enriched rabbit chow (Purina #5322) with or without 0.4% MDL compound (except, MDL 108,804 at 0.26% and MDL 103,491 repeated at 0.6%). The MDL compounds were solubilized in 100% ethanol. MDL 108,208 was not soluble in 100% ethanol, but it was soluble in diethyl ether:ethanol (3:2 by volume). The chow was sprayed with the MDL mixtures and allowed to dry overnight in a chemical fume hood. Control chow was sprayed with ethanol. Rabbits were fed 100 grams food per day for 7 days (0.6% MDL 103,491 were fed for 14 days); water was available ad libitum. On day 7, rabbits (fasted overnight) were bled (~2 mL) from marginal ear vein; 0.6% MDL 103,491 treated rabbits were tested on day 14. They were euthanized by carbon dioxide overdose. The total body and liver weights were recorded in grams. Food consumption was recorded as grams.cndot.day^-1 .cndot.rabbit^-1. Aliquots of fresh serum were used for clinical chemistries, lipoprotein cholesterol determination, thiobarbituric acid reactive substances (TBARS) and compound and metabolite concentrations in serum. Livers (~5 gram aliquots) were frozen at -20° C. for compound and metabolite concentration determination at a later time.
Serum and liver concentrations of parent compounds and the metabolites, bisphenol and diphenoquinone, were determined by reverse phase HPLC using a Waters 990 Powerline system. Livers (1 gram) were homogenized with 5.0 mL PBS, pH 7.4, using a Polytron tissue homogenizer at setting 5 for 20-30 seconds. Serum or liver homogenates were extracted as follows: 100 μL of either serum or homogenate were added to 2.0 mL diethyl ether:ethanol (3:1) while vortexing the tube. The sample tubes were capped and centrifuged for 10 min at 5° C. at 3500 rpm in a Beckman GPKR centrifuge with a GH 3.7 rotor. The supernatants were transferred to clean tubes and dried under N2. Samples were reconstituted with 200 μL of acetonitrile:hexane:0.1M ammonium acetate (90:6.5:3.5, by vol.). Then, 100 μL were injected onto a Waters Deltapak C18-300 Å column, and eluted with an 83% acetonitrile:17% water mobile phase at a flow rate of 1.5 mL/min. Absrobances at the wavelengths of 240, 254, and 420 nm were recorded. Compound concentrations were calculated from known quantities of authentic parent compounds after correction for recovery; the range of recovery from spiked samples was 40 to 100%. The lowest detectable limit for this class of compounds was ~0.5 μg/mL. Concentrations were calculated as μg/mL of serum and μg/g of liver.

The subject of series [4] is serum cholesterol, LDL, HDL, triglycerides. As to the kind of experiment: Serum lipids and lipoprotein cholesterol in cholesterol-fed female New Zealand White rabbits. To be noted: Oryctolagus cuniculus, po, 168 h, rabbit serum, 7 days; for response vs control in vivo at 0.4 %: diet 0.4%; for response vs control in vivo at 0.26 %: diet 0.26%. The format is in vivo. As for the experimental part: as §5
Blood was allowed to clot at room temperature for 30 minutes. Serum was obtained after centrifugation for 10 min at 5° C. at 3000 rpm in a Beckman GPKR centrifuge with a GH rotor. Fresh serum was analyzed by a COBAS MIRA autoanalyzer (Roche Diagnostics) using Roche diagnostic reagents for total cholesterol (CHOL, kit #44334) and triglyceride (TG, kit #44120). Cholesterol and triglycerides were calculated as mg/dL.
Lipoprotein fractions (very low density lipoprotein, VLDL, low density lipoprotein, LDL and high density lipoprotein, HDL) were separated on a Sepharose 6HR column (1×30 cm, Pharmacia) attached to a Waters Powerline HPLC system. Fifty μL of serum were injected onto the column and eluted with phosphate buffered saline, pH 7.4, at a flow rate of 0.5 mL/min. Cholesterol reagent (Roche Diagnostics, kit #44334, diluted with 20 mL water and then with 20 mL of 0.9% saline) was added at 0.2 mL/min to the post column eluant and incubated in a knitted PFTE Kratos reaction coil (Applied Biosystems) at 37° C. for 5 min. Absorbance was measured at 500 nm. The lipoprotein subfractions were quantitated as follows: [formula]

A short description of series [5]: Food consumption, body and liver weight in cholesterol-fed rabbits. The format is in vivo, female New Zealand White rabbits. To be noted: 7 days; for body wt., percent of control / lw/bw (liver weight/body weight), percent of control: rabbit. As for the experimental part:
as §5

For series [6], the system named is oxidation of serum lipids. Put plainly: TBARS assay, serum of cholesterol-fed rabbits. The format is in vivo, female New Zealand White rabbits. The conditions noted are these: Oryctolagus cuniculus, po, 168 h, rabbit serum, 7 days, read-out: TBARS, percent of control. Here is the method: as §5
TBARS are a qualitative indication of the oxidation of lipids in a sample. In this assay the oxidation of serum lipids is initiated with CuSO4, resulting in the formation of aldehydes, such as malondialdehyde (MDA). Upon incubation with thiobarbituric acid, the absorbance of the aldehydes can be detected at 530-540 nm. TBARS values which are lower than control serum values indicate the relative ability of a compound to inhibit the oxidation. TBARS were measured as follows: 50 μL of serum were mixed with 50 μL of 0.9% saline and 400 μL of a 5 mM CuSO4 solution and incubated at 37° C. for 5 hr. The reactions were stopped by addition of 1.0 mL of 20% trichloroacetic acid. Then 1.0 mL of 0.67% thiobarbituric acid in 0.05N sodium hydroxide was added, mixed, and the samples incubated for 30 min at 90° C. Samples were centrifuged briefly to pellet undissolved material, and the supernatants were transferred to a 96-well microtiter plate. Absorbances were measured at 540 nm using a Biotek model EL311 microplate reader. The nmoles of MDA produced were calculated from a standard curve of 0 to 10 nmoles of MDA prepared from malonaldehyde bis(dimethylacetal). Serum samples from treated rabbits were compared to serum samples from control rabbits that received no MDL compound.

The mark [7] stands for this setting: read-out: HDL cholesterol, percent of control.
[8] abbreviates: read-out: LDL cholesterol, percent of control.
[9] abbreviates: read-out: TRIG (triglycerides), percent of control.
Where [10] appears, read: read-out: chol tot. (total cholesterol), percent of control.

Where two headings read alike, the source gives them in different places.

Regarding `Cc1cc(O)c(C)c(C)c1OC[Si](C)(C)c1ccccc1` [MDL 103,653, 2,3,5-Trimethyl-4-[(dimethylphenylsilyl)methyloxy]phenol], in the series with VCAM-1 [1], the “VCAM-1 (Avg.) % inh.” value was found to be 56.4%, the “HSMC-1 % inh. of VCAM-1” value was 63.1%, the “HSMC-2 % inh. of VCAM-1” value was 54.0% and the “HSMC-3 % inh. of VCAM-1” value was 52.0%. The ICAM-1 % inh. in the series on ICAM-1 came out at 78.5%. In the series with VCAM-1 [2], this compound returned a VCAM-1 % inh. of 37.7%.
For `CC(C)(C)c1cc(SC[Si](C)(C)C)cc(C(C)(C)C)c1OC(=O)CCC(=O)O` [MDL 104,863, 2,6-Di-t-butyl-4-[(trimethylsilyl)methylthio]phenol succinic acid ester], in the series with VCAM-1 [1], the “VCAM-1 (Avg.) % inh.” value was determined as 54.8%, the “HSMC-1 % inh. of VCAM-1” value turned out to be 56.5%, the “HSMC-2 % inh. of VCAM-1” value was 52.0% and the “HSMC-3 % inh. of VCAM-1” value worked out at 56.0%. Besides, the ICAM-1 % inh. in the series on ICAM-1 was 53%. In the series on VCAM-1 [2], this compound showed a VCAM-1 % inh. of 44.3%.
Regarding `CC(C)(C)c1cc(OC[Si](C)(c2ccccc2)c2ccccc2)ccc1O` [MDL 107,917, 2-t-butyl-4-[(diphenylmethylsilyl)methyloxy]phenol], the “Liver Parent = parent compound concentration” value in series [3] (diet 0.4%) is 0 µg/g. In addition, in series [3] (diet 0.4%), the “Serum Parent = parent compound concentration” value is 0 µg/mL. Besides, the response vs control in vivo at 0.4 % in series [4] (setting [7]) came out at 86%; in series [4] (setting [8]), 165%; in series [4] (setting [9]), 129%; in series [4] (setting [10]) it was 151%; in series [6] (diet 0.4%), 68%. For the same compound, in series [5] (diet 0.4%), the “food (grams eaten per day per rabbit), percent of control” value is on record as 100%. Moreover, the “body wt., percent of control” value in series [5] (diet 0.4%) is on record as 99%. For the same compound, the “lw/bw (liver weight/body weight), percent of control” value in series [5] (diet 0.4%) worked out at 106%.
`CC(C)(C)c1cc(OC[Si](C)(C)Cc2ccccc2)ccc1O` [MDL 108,804, 2-t-butyl-4-[(dimethylbenzylsilyl)methyloxy]phenol]: the “Liver Parent = parent compound concentration” value in series [3] (diet 0.26%) amounted to 0 µg/g. For the same compound, the “Serum Parent = parent compound concentration” value in series [3] (diet 0.26%) is 0 µg/mL. Further, the response vs control in vivo at 0.26 % in series [4] (setting [7]) came out at 109%; in series [4] (setting [8]), 82%; in series [4] (setting [9]), 143%; in series [4] (setting [10]), 91%; in series [6] (diet 0.26%) it was 49%. Besides, the “food (grams eaten per day per rabbit), percent of control” value in series [5] (diet 0.26%) was 100%. For the same compound, in series [5] (diet 0.26%), the “body wt., percent of control” value is 101%. The “lw/bw (liver weight/body weight), percent of control” value in series [5] (diet 0.26%) was determined as 96%.
